Measured values as given in ChEMBL document CHEMBL5653631, “A Potent and Selective ULK1 Inhibitor Suppresses Autophagy and Sensitizes Cancer Cells to Nutrient Stress” (iScience, 2018).
Each block holds one compound with its values, some of them ahead of it.

Key:
[1] = molecular target: T1, Inhibitor of nuclear factor kappa-B kinase subunit alpha (Homo sapiens) (UniProt O15111); test: Inhibition of human recombinant IKKa at 500 nM in presence of ATP by radiometric assay relative to control
T1 sequence (whole entry): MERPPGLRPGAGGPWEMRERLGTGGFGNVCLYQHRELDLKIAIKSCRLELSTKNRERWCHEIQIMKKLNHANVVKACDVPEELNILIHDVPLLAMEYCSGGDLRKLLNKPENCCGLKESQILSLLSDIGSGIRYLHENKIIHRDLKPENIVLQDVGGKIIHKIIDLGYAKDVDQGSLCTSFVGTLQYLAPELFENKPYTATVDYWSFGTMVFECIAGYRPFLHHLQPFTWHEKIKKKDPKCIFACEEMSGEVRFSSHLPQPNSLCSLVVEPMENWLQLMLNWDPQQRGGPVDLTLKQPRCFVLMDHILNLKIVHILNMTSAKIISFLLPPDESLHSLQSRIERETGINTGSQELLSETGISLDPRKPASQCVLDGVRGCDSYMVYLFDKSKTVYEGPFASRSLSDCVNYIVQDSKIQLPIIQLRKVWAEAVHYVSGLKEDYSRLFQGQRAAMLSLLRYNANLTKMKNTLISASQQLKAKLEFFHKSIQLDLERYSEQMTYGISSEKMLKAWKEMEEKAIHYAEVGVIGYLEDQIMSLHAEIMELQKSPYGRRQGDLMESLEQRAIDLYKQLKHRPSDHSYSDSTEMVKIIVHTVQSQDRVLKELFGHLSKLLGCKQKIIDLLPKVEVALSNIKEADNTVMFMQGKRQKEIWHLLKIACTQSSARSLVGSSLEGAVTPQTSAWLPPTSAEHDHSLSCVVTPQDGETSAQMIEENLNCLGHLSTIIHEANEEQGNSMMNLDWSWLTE

[2] = molecular target: Macrophage colony-stimulating factor 1 receptor (Homo sapiens) (UniProt P07333); test: Inhibition of human recombinant FMS at 500 nM in presence of ATP by radiometric assay relative to control
[3] = molecular target: Tyrosine-protein kinase HCK (Homo sapiens) (UniProt P08631); test: Inhibition of human recombinant HCK at 500 nM related to control ULK1
[4] = molecular target: cAMP-dependent protein kinase catalytic subunit beta (Homo sapiens) (UniProt P22694); test: Inhibition of human recombinant PKACbeta at 500 nM related to control ULK1
[5] = molecular target: Mitogen-activated protein kinase 8 (Homo sapiens) (UniProt P45983); test: Inhibition of human recombinant JNK1 at 500 nM in presence of ATP by radiometric assay relative to control
[6] = molecular target: Dual specificity mitogen-activated protein kinase kinase 1 (Homo sapiens) (UniProt Q02750); test: Inhibition of human recombinant MAP2K1 at 15 nM related to control ULK1
[7] = molecular target: cAMP-dependent protein kinase catalytic subunit alpha (Homo sapiens) (UniProt P17612); test: Inhibition of human recombinant PKACalpha at 15 nM in presence of ATP by radiometric assay relative to control
[8] = molecular target: Serine/threonine-protein kinase MRCK beta (Homo sapiens) (UniProt Q9Y5S2); test: Inhibition of human recombinant MRCKb at 15 nM related to control ULK1
[9] = molecular target: T2, Myotonin-protein kinase (Homo sapiens) (UniProt Q09013); test: Inhibition of human recombinant DMPK1 at 40 nM in presence of ATP by radiometric assay relative to control
T2 sequence (whole entry): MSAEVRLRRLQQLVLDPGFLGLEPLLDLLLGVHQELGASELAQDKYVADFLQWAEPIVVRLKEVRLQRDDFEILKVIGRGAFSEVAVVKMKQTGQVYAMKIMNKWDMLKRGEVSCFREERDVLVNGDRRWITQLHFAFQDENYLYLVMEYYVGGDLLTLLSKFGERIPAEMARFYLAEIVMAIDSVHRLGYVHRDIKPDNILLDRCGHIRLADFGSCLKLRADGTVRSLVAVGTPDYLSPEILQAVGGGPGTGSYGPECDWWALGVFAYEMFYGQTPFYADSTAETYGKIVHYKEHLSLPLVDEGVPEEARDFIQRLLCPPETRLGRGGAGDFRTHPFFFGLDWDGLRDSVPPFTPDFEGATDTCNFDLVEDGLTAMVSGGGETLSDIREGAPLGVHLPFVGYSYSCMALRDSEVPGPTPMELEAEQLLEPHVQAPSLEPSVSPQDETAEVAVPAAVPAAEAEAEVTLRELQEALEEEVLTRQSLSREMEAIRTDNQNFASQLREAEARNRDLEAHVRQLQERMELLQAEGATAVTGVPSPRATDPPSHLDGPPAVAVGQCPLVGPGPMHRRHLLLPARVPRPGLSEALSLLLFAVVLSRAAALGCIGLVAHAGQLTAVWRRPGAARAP

[10] = molecular target: T3, Phosphorylase b kinase gamma catalytic chain, liver/testis isoform (Homo sapiens) (UniProt P15735); test: Inhibition of human recombinant PHKg2 at 40 nM related to control ULK1
T3 sequence (whole entry): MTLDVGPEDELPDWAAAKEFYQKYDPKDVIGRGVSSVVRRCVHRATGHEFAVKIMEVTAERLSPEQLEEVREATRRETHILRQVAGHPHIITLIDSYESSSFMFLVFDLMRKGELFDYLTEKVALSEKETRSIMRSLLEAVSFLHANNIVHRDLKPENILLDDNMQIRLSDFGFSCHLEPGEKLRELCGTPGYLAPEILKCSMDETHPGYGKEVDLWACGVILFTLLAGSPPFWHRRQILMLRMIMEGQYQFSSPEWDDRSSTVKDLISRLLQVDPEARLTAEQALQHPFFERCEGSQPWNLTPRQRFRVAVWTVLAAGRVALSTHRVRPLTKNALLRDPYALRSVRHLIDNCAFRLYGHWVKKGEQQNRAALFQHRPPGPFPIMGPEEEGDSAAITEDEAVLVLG

[11] = molecular target: Casein kinase II subunit alpha (Homo sapiens) (UniProt P68400); test: Inhibition of human recombinant CK2a1 at 40 nM in presence of ATP by radiometric assay relative to control
[12] = molecular target: T4, Tribbles homolog 2 (Homo sapiens) (UniProt Q92519); test: Inhibition of human recombinant Trb2 at 40 nM related to control ULK1
T4 sequence (whole entry): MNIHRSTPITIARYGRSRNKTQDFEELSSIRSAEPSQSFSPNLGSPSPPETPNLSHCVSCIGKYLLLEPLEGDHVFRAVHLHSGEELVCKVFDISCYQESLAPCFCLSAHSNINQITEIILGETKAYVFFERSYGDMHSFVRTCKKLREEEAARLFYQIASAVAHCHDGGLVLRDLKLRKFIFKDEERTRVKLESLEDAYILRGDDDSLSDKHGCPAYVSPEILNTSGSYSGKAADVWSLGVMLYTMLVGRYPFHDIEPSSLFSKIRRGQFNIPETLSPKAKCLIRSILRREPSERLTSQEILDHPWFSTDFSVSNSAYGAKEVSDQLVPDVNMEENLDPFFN

[13] = molecular target: Death-associated protein kinase 3 (Homo sapiens) (UniProt O43293); test: Inhibition of human recombinant DAPK3 at 40 nM related to control ULK1
Death-associated protein kinase 3 (Homo sapiens), sequence (O43293 whole entry, looked up): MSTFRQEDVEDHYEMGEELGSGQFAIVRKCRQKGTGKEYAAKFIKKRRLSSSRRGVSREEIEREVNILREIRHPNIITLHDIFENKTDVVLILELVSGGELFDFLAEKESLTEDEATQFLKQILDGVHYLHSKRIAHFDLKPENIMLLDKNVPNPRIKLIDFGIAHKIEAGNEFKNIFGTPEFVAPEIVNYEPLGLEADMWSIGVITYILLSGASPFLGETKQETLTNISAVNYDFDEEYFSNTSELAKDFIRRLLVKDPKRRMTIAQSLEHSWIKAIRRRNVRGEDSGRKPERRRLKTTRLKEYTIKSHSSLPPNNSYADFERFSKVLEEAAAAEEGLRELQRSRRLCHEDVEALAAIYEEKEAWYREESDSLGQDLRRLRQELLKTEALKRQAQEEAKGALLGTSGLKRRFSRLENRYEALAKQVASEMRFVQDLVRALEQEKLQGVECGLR

Casein kinase II subunit alpha (Homo sapiens), sequence (P68400 whole entry, looked up): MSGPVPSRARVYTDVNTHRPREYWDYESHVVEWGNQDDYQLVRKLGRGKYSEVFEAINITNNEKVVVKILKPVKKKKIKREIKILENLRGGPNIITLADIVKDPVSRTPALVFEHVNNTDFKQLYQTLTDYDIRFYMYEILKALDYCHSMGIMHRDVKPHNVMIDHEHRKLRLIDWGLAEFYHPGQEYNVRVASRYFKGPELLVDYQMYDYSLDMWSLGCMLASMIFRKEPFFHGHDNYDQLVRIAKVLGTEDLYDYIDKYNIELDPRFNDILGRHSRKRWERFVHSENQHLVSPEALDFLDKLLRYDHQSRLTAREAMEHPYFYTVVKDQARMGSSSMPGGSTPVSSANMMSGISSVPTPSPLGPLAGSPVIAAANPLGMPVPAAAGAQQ
Mitogen-activated protein kinase 8 (Homo sapiens), sequence (P45983 whole entry): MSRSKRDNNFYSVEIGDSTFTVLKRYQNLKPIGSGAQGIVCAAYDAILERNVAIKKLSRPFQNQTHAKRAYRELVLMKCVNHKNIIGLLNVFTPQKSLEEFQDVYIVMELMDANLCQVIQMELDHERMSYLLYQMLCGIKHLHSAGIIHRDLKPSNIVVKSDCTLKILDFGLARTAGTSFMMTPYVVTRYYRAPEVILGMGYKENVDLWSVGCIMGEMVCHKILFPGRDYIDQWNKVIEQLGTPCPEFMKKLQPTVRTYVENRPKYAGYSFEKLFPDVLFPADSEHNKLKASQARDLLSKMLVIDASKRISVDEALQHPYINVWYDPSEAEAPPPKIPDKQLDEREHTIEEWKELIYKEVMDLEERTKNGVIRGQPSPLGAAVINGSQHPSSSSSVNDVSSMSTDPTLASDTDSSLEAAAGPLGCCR
Tyrosine-protein kinase HCK (Homo sapiens), sequence (P08631 2-526 limits assumed): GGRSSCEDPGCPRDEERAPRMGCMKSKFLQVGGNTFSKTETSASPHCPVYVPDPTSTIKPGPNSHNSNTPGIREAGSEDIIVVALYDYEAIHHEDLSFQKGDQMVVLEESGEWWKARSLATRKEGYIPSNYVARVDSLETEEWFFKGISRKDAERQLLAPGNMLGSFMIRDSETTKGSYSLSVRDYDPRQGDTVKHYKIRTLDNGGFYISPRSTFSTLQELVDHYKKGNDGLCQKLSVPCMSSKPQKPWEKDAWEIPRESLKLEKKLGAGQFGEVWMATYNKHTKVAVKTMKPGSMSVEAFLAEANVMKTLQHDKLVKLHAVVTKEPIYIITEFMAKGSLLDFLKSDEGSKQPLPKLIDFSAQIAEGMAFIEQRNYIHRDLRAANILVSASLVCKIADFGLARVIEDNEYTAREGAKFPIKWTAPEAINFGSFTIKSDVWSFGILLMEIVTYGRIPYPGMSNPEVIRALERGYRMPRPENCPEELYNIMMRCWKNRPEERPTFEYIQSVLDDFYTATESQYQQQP
Macrophage colony-stimulating factor 1 receptor (Homo sapiens), sequence (P07333 whole entry): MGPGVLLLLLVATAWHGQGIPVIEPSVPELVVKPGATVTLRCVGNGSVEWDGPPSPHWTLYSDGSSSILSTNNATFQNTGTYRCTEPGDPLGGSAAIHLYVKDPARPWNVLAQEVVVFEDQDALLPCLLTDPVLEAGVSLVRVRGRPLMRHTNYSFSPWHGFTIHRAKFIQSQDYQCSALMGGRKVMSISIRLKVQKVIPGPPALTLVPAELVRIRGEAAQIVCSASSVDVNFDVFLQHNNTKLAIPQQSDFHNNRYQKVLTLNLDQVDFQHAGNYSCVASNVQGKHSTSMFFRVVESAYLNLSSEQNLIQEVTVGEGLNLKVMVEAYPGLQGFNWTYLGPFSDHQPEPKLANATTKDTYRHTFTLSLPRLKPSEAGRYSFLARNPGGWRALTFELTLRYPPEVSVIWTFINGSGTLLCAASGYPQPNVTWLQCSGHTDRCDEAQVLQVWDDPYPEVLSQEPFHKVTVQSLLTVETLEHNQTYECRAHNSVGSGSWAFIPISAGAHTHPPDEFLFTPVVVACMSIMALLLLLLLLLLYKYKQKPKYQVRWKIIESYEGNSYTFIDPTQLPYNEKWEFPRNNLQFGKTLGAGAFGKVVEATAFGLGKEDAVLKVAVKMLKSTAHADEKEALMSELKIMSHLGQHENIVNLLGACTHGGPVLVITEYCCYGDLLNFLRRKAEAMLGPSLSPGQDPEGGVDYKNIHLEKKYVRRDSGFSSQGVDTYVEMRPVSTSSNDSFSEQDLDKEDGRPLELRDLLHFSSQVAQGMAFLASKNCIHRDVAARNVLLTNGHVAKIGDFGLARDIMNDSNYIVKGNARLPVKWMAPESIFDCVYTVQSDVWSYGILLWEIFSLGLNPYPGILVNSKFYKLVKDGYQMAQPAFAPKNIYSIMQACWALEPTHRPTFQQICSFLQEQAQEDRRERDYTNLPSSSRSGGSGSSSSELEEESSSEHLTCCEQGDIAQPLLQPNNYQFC
Serine/threonine-protein kinase MRCK beta (Homo sapiens), sequence (Q9Y5S2 whole entry): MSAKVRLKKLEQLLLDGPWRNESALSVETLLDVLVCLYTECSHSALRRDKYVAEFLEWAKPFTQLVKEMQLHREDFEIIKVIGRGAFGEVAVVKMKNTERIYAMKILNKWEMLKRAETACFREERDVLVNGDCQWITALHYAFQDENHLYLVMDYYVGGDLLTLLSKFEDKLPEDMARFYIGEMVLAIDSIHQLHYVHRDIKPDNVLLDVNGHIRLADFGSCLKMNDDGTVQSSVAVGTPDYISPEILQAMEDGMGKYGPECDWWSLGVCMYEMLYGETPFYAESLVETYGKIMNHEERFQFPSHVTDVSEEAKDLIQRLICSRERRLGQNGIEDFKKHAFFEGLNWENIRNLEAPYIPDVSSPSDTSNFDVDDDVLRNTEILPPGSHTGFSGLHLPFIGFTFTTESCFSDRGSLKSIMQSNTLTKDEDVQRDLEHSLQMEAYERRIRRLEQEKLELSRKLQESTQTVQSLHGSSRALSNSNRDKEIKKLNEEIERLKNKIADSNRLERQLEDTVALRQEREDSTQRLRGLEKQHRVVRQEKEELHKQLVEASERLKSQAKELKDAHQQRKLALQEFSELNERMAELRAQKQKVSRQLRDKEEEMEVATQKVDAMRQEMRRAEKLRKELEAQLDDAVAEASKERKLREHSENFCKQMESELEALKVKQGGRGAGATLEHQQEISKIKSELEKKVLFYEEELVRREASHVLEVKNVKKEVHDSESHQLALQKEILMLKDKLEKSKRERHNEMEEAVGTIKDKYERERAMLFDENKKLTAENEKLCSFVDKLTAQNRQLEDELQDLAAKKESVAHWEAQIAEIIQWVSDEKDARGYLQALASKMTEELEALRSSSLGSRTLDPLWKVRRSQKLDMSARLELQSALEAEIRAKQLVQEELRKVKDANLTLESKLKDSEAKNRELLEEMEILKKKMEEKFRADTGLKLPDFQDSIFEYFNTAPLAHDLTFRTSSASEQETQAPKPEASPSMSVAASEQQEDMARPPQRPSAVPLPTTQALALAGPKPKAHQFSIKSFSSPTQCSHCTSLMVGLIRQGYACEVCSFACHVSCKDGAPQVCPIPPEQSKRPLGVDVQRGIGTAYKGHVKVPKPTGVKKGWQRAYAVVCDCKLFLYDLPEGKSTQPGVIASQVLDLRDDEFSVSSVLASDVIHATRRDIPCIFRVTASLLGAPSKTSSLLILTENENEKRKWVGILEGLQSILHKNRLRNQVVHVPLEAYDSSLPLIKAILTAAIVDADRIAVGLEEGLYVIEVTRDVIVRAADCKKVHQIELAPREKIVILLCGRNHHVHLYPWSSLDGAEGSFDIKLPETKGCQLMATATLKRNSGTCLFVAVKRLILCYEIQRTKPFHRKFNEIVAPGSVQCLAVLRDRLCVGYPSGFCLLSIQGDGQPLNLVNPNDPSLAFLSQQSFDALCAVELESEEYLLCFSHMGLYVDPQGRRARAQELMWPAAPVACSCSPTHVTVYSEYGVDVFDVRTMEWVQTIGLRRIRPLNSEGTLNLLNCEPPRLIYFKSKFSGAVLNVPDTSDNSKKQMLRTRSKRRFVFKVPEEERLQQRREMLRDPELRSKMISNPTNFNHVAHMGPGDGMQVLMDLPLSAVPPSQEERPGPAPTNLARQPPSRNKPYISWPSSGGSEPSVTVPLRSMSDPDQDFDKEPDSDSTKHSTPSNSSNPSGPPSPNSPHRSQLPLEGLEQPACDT
Dual specificity mitogen-activated protein kinase kinase 1 (Homo sapiens), sequence (Q02750 whole entry): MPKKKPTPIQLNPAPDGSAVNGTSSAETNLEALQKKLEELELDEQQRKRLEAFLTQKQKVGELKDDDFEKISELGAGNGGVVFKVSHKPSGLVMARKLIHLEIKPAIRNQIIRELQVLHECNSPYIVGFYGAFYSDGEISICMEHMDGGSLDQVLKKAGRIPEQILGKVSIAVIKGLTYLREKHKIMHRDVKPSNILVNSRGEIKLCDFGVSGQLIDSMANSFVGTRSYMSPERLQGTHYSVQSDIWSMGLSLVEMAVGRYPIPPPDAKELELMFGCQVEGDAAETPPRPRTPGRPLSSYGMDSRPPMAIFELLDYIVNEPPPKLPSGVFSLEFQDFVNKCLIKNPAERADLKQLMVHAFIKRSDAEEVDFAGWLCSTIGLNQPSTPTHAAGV

inhibition [1]: 2% | inhibition [2]: 19% | fold change (FC) [3]: 0.23 | fold change (FC) [4]: 0 | inhibition [5]: 1%
Structure (SMILES): CNC(=O)c1ccccc1Oc1nc(Nc2cc(OC)c(OC)c(OC)c2)ncc1Br

fold change (FC) [6]: 0.08 | inhibition [7]: 0% | fold change (FC) [8]: 0.07
Structure (SMILES): CC(C)[C@H](NC(=O)c1cc(-c2cnn3cc(-c4ccc(OCCN5CCCCC5)cc4)cnc23)cs1)C(F)(F)F

inhibition [9]: 5% | fold change (FC) [10]: 0 | inhibition [11]: 7% | fold change (FC) [12]: 0.47
Structure (SMILES): O=C(N[C@@H](C1CC1)C(F)(F)F)c1cc(-c2cnn3cc(-c4ccc(F)cc4)cnc23)cs1
fold change (FC) [13]: 0.11
